Consider four molecules from US8921356B2, “Compositions comprising nicotinic agonists and methods of using same” (priority 2007, dated 2014).

The test system of assay [1] is rats. In words: Nicotine-induced hypothermia in rats. The assay is classed as in vivo, rat. As for the experimental part:
(§1) (ii) Animals—Young adult (240 g-290 g) male Sprague-Dawley rats (Charles River, USA or Harlan, Israel) were used in the experiments.
(iv) Determination of nicotine-induced hypothermia—Rats were placed individually in experimental cages kept at 25° C. and were allowed to rest for 1 h before drug injection. During this period, body temperature was measured at 15- or 30-min intervals in order to exclude the effect of handling on animal temperature. Body temperature was measured with a rectal thermistor probe (M.R.C, Israel, sensitivity 0.1° C.). The probe was lubricated with petroleum before being inserted into the rectum to a depth of 2 cm. The data are presented as changes in rectal temperature from the basal values. Basal values are those taken immediately before the drug injection (time 0).
Rats were divided into three treatment groups, each of 5 rats, as follows: 1. treatment with nicotine (2 mg/kg); 2. treatment with opipramol (20 mg/kg); 3. treatment with opipramol (20 mg/kg) together with nicotine (2 mg/kg). Rats were injected with nicotine twice on the first day (FIG. 3A, D-1, left panel) and three times on days 2 (FIG. 3A, D-2, middle panel) and 3 (FIG. 3A, D-3, right panel). […] Nicotine was injected with and without opipramol, and body temperature was measured at 30 min intervals. […] FIG. 3A: Each point is the Mean±S.E.M. of change in body temperature compared to the temperature measured at time 0 (before the first injection) for at least five rats. FIG. 3B depicts a bar histogram representing mean±S.E.M. of the maximum change in body temperature compared to the temperature measured just before the injection.
The body temperature (0 C) was measured 30 min post injection. FIG. 7 depicts the maximum decrease in body temperature after each injection.
Nicotine (2 mg/kg), lidocaine (15 mg/kg), and nicotine+lidocaine (2 mg/kg+15 mg/kg) were administered to rats 2× day for two days, following the above protocol.

Assay [2] has as its system smooth muscle of a guinea pig ileum. In words: Nicotine-induced smooth muscle contraction in the guinea pig ileum preparation. As for the experimental part: The free end of a smooth muscle of a guinea pig ileum was attached to a force displacement transducer. Isometric tension of the smooth muscle was continuously monitored by outputting the preamplified transducer signal to a computer.
The ileum preparation was washed by physiological solution 10 min after the addition of nicotine and then nicotine at a final concentration of 25 μM was added again to the muscle preparation for additional 10 min (2nd stimulation; bar 3).

The next assay concerns BDNF mRNA. In words: BDNF mRNA expression in rat cerebral cortex. Type of assay: in vivo. As to the method:
Nicotine alone (0.5 mg/kg) or opipramol (10 mg/kg) or nicotine (0.5 mg/kg)+opipramol (10 mg/kg) were injected intraperitoneally (ip) to rats (5 per group) at intervals of 2 hours during a single day. The drugs were dissolved in saline and used in the same day. […] Animals were sacrificed 90 min after each injection and brain derived neurotrophic factor (BDNF) and β-actin mRNA were determined in homogenates of the cerebral cortex of each animal.
Homogenates of the cerebral cortex were prepared as follows: Rat brain tissues were sonicated for 15 sec and total RNA was obtained using the Trizol Reagent (Molecular Research Center, Cincinnati, Ohio, USA), according to the manufacturer's instructions. RNA concentrations were quantified by measuring the absorbances at 260 and 280 nm. RNA was reverse transcribed into cDNA during 45 min at 42° c. The cDNA products were diluted 1:40 for BDNF and 1:1000 for β-actin (a housekeeping gene for internal standard). In order to amplify gene specific sequences, PCR techniques were applied using ReadyMix PCR Master Mix (AB-genes, Surrey, UK) and specific primer sequences for BDNF and beta actin. The products were separated by electrophoresis on agarose and quantification of the bands was done by an image analyzer.

The subject of the next assay is nAChR. In words: Nicotine-induced 45Ca2+ uptake (calcium influx) in SK-N-SH human neuroblastoma cells. Type of assay: cell-based. As to the method: (i) Cells—SK-N-SH human neuroblastoma cell line was obtained from the American Type Culture Collection (ATTC).
SK-N-SH human neuroblastoma cells, known to express nAChR, were grown in Dulbecco/Vogt Modified Eagle's Minimal Essential Medium (DMEM) to confluency in a 24-well plate. DMEM containing 45Ca^2+ without any other addition (1) or with 50 μM nicotine (2) or with 50 μM nicotine+10 μM opipramol (3) was added to cells grown in 24-well plates and preincubated with medium alone for 15 minutes, then washed rapidly. Intra cellular radioactivity was determined for each condition. The same medium with nicotine was added also to cells that were preincubated for 15 minutes with either 50 μM nicotine alone (4) or with 50 μM nicotine+10 μM opipramol (5). 45Ca2+ uptake was determined after 10 min. Activation of the nicotinic receptors causes calcium influx so it is a measure of the nicotinic receptor activity.

Assay [3] has as its system rats. In words: Elevated plus maze (EPM) anxiety test in rats. Type of assay: in vivo, rat.
Description: as §1
(v) Elevated […] Maze (EPM)—The purpose of the EPM is to determine the anxiolytic effects of tested drugs. The time that the experimental animals spend in the open arm of the maze is an indication for the anxiolytic effect, the longer the time the higher the anxiolytic effect. The EPM is a wooden, cross-shaped device, consisting of four arms arranged in the shape of a plus sign. Two of the arms have no side or end walls (open-arms; 30×5×0.25 cm). The other two arms have side walls and end walls, but are open on top (closed arms; 30×5×15 cm). The maze is elevated to a height of 50 cm. The animals are kept in a relatively dark box before exposure to the maze in order to increase their exploratory behavior. The tests were done in a silent environment under dim light. The animals were carried to the laboratory and left there undisturbed for 1 h before the experiment.
This test is used to assess anxiety. Rats were randomly assigned into five groups each containing 5 animals and then tested in an Elevated Plus Maze (EPM). In the first (control) group, rats were injected with saline once a day; in the second group rats were injected with nicotine (0.5 mg/kg or 2 mg/kg) three times a day and were tested in the maze after the third injection; in the third group rats were injected with opipramol (10 mg/kg) three times a day and then were tested in the maze; in the fourth group, rats were injected with opipramol (10 mg/kg) or galantamine (5 mg/kg), and nicotine (2 mg/kg or 0.5 mg/kg) three times a day and were tested in the maze after the last injection. The behavioral response to nicotine in the EPM was assessed 30 min after the first injection, and then again 30 minutes after the third injection.

`CN(C)CCCN1c2ccccc2CCc2ccc(Cl)cc21` [clomipramine]: the “hypothermic effect of nicotine” value in the assay with rats [1] (clomipramine 30 mg/kg with nicotine 2 mg/kg, consecutive injections 2 h apart) is “no further reduction in the hypothermic effect”; in the assay with rats [1] (clomipramine 30 mg/kg with nicotine 2 mg/kg, first injection), “inhibited to some extent the effect of nicotine”.

`CCN(CC)CC(=O)Nc1c(C)cccc1C` [lidocaine]: the “hypothermic effect of nicotine” value with rats [1] (lidocaine 15 mg/kg + nicotine 2 mg/kg, 2x day for two days) is “maintained the hypothermic effect of nicotine”.

On to `CN1CCC[C@H]1c1cccnc1` [nicotine, S-3-(1-methyl-2-pyrrolidinyl)pyridine], for which the muscle contraction result in assay [2] (1st stimulation, 25 μM nicotine alone) was “caused muscle contraction”; in assay [2] (2nd stimulation with 25 μM nicotine after 1st stimulation with nicotine alone), “did not induce muscle contraction”. The hypothermic effect entry in the assay on rats [1] (nicotine 2 mg/kg alone, 2x day for two days) is “loss of the hypothermic effect”. The “hypothermic effect (maximum decrease in body temperature)” value in the assay with rats [1] (nicotine 2 mg/kg alone, 3 injections 2 h apart) is reported as “gradual decrease in the hypothermic effect”. Besides, the “magnitude of the decrease in body temperature” value with rats [1] (nicotine 2 mg/kg repeatedly injected for three consecutive days, P<0.05) is listed as “became progressively smaller”. Moreover, the “BDNF mRNA level (ratio to β-actin)” value in the assay with BDNF mRNA (nicotine 0.5 mg/kg ip alone, repeated (third) injection) is reported as “much smaller rise”; in the assay on BDNF mRNA (nicotine 0.5 mg/kg ip, first injection), “increased”. Besides, the “calcium influx (45Ca2+ uptake)” value in the assay with nAChR (first exposure to 50 μM nicotine, compared to basal uptake, SK-N-SH cells) is listed as “caused an increase in calcium influx”; in the assay with nAChR (second exposure to 50 μM nicotine after 15 min preincubation with nicotine alone) it was “considerably reduced”. Moreover, the “anxiolytic effect (time in open arm)” value in the assay with rats [3] (nicotine alone, 0.5 mg/kg and 2 mg/kg, second injection) is recorded as “did not induce an anxiolytic effect”. In addition, the “time spent in the open arm (anxiolytic effect)” value in the assay on rats [3] (one injection of nicotine) is “significantly increased”.

As to `OCCN1CCN(CCCN2c3ccccc3C=Cc3ccccc32)CC1` [opipramol], the “effect of nicotine (muscle contraction) relative to that induced by nicotine alone” value in assay [2] (1st stimulation, 25 μM nicotine in the presence of 10 μM opipramol) is reported as “about 50%”. Also, in assay [2] (2nd stimulation with 25 μM nicotine after 1st stimulation in the presence of opipramol), the “muscle contraction response to nicotine” value is “almost full response”. The “duration of the effect of nicotine (muscle contraction)” value in assay [2] (nicotine administered together with opipramol, until removal by washing, data not shown) is on record as “maintained steady for one hour”. The “change in body temperature” value with rats [1] (opipramol 20 mg/kg alone) was “only a slight decrease in body temperature”. In addition, the “magnitude of the reduction in body temperature” value in the assay with rats [1] (opipramol 20 mg/kg together with nicotine 2 mg/kg, second and third day, after second and third injections, P<0.001) is “significantly larger than that induced by nicotine alone”. The “BDNF mRNA level (ratio to β-actin)” value is listed as “rising even above that which was observed with nicotine alone” with BDNF mRNA (nicotine 0.5 mg/kg + opipramol 10 mg/kg ip, third injection) and “no effect” with BDNF mRNA (opipramol 10 mg/kg ip alone, third injection). Further, the “calcium uptake (45Ca2+)” value in the assay on nAChR (first stimulation with 50 μM nicotine in the presence of 10 μM opipramol, compared to nicotine alone) is recorded as “only slightly smaller”. In the assay with nAChR (second stimulation with 50 μM nicotine after 15 min preincubation with 50 μM nicotine + 10 μM test drug), the “nAChR desensitization (45Ca2+ uptake at second nicotine stimulation)” value is given as “remarkedly reduced”. For the same molecule, the “anxiolytic effect (time in open arm)” value in the assay on rats [3] (nicotine 0.5 mg/kg together with opipramol 10 mg/kg or galantamine 5 mg/kg, second injection) is reported as “the anxiolytic effect was seen in the second injection”; with rats [3] (nicotine 2 mg/kg together with opipramol 10 mg/kg or galantamine 5 mg/kg), “inhibited desensitization”.
